Laboratory results: PMC9440176, “Novel benzylidene benzofuranone analogues as potential anticancer agents: design, synthesis and in vitro evaluation based on CDK2 inhibition assays” (3 Biotech, 2022)

Key:
[1] = DPPH. free radical scavenging assay
[2] = tested on: HCT116 cells; test: Comet assay (DNA damage); format: cell-based, Human; conditions: 24 h, HCT-116
Procedure: To assess the genotoxicity effect of newly synthesized aurones, comet assay was performed on HCT -116 cell lines.
The agarose-coated glass slides were prepared according to the standard procedure (Tice et al. [2000]).
Compound selected—NISOA4.
Cell line used were- HCT116 cells (Human colorectal cancer cell lines).
HCT -116 (1 × 10^6) cells were treated with two different concentrations, 12.5, 25 μM of NISOA4 for 24 h.
The cells were centrifuged at 2000 rpm at 4 °C for 5 min followed by washing with PBS. Further, it was air dried and pellet was dissolved once again in PBS.
After keeping slides at 4 °C for 2 h, slides were removed from the lysis buffer and were placed side by side on a horizontal gel box near one end, sliding them as close together as possible.
The slides were placed on ice for 10 min and submerged in lysis buffer (2.5% NaCl, 100 mM EDTA, 10 mM Tris, 10% DMSO and 1% Troton X-100) at pH 10 at 4 °C for more than 1 h.
In the next step, the buffer reservoir was filled with freshly made electrophoresis buffer (pH > 13) until the liquid level was enough to cover the slides. […]
Slides were stained with 80 µL 1× Ethidium Bromide and left aside for 10 min followed by washing with PBS to remove the excess of stain. The slides were then scored immediately after washing.
The visualization of DNA damage was observed based on EtBr-staining technique using a 40× objective on a fluorescent microscope. The assessment of both qualitative as well as quantitative extent of DNA damage in the cells were carried out by measuring the length of DNA migration and the percentage of the migrated DNA using ImageJ software with open comet plug-in. Generally, 50 to 100 randomly selected cells are analysed per sample. Finally, the total tail amount was calculated. The final results are assessed by using the following parameters: (i)amount of migration per cell (ii) the number of cells with increased migration (iii) the extent of migration among damaged cells and (iv) cell viability (Końca et al. [2003]).

[3] = tested on: Cyclin A gene expression in HCT 116 cell lines; test: Semi-quantitative RT-PCR gene expression of Cyclin A; format: cell-based, Human; conditions: for CyclinA expression profile (in words): HCT 116; for Relative gene expression of Cyclin A: control 1.00
Procedure: HCT-116 cells were trypsinized and added to 1 ml TRIzol and vortexed. Samples were then allowed to stand for 5 min at room temperature. 0.2 ml of chloroform per 1 ml of TRIzol was added. The tube was later stoppered and shaken vigorously for 15 s and was allowed to stand at room temperature for 5 min. The resulting mixture was then centrifuged at 10,000×rpm for 15 min at […]. The upper aqueous phase was transferred to another clean tube followed by the addition of 0.5 ml of isopropanol per 1 ml of TRIzol. The contents were mixed gently by inverting the sample 5 times and incubated at room temperature for 5 min. Further, the tubes were centrifuged at 10,000×rpm for the next 10 min at […]. Later, the supernatant was discarded and the RNA pellet was washed by adding 1 ml of 70% ethanol. Further, the contents were mixed gently by inverting the sample for few times. It was again centrifuged for 5 min at 14,000×rpm at […]. In the later step, the supernatant was discarded by inverting the tube on a clean tissue paper. Later, the pellet was dried by incubating in a […] for 5 min at 55 °C. The pellet was then resuspended in 25 µL of DEPC (Diethyl pyro carbonate) treated water.
A semi-quantitative reverse transcriptase polymerase chain reaction (RT-PCR) was carried out using Techno Prime system to determine the levels of β-actin and CDK-2 and CyclinA mRNA expression. The cDNA was synthesized from 2 µg of RNA using the Verso cDNA synthesis kit (Thermo Fischer Scientific) with oligo dT (deoxy thymine) primer according to the manufacturer’s instructions. The reaction volume was set to 20 μL and the cDNA synthesis was performed at 42 °C for 60 min followed by RT inactivation at 85 °C for 5 min (Murakami [1996]).
The PCR mixture (final volume of 20 µL) contains 1 µL of cDNA, 10 µL of Red Taq Master Mix 2× (Ampliqon) and 1 µM of each complementary primer specific for CDK2 and CyclinA and β-actin (internal control) sequence. The samples are denatured at 95 °C for 5 min and amplified using 35 cycles of 95 °C for 30 s then again at 55 °C for 30 s and 72 °C for 1 min for β-actin; the […] annealing was finally set to 56 °C followed by the final elongation at 72 °C for 10 min. […] Ten microliters of the final amplification product are run on a 2% ethidium-stained agarose gel and photographed. Quantification of the results could be accomplished by measuring the optical density of the bands, using the computerized imaging program Image J. The values were normalized to β-actin intensity levels (Bookout and Mangelsdorf [2003]).

For `COc1ccc(/C=C2\Oc3c(c(OC)cc(OC)c3C3=CCN(C(C)C)CC3)C2=O)cc1OC` [NISOA4], the IC50 [1] was 159 ± 0.45 µM, the “Olive moments (Mean ± SD)” value ([2]; 12.5 µM) was 25.38 and the “Olive moments (Mean ± SD)” value ([2]; 12.5 µM, listed as NISOA04) was 25.384 ± 24.333. The “Olive moments (Mean ± SD)” value ([2]; 25 µM, listed as NISOA04) was 73.582 ± 97.498, the “Band intensity Of PCR Amplicon Of genes, Cyclin A” value ([3]; 12.5 μM) was 16,245.903 and the “Normalized (Cyclin A to β-actin)” value ([3]; 12.5 μM) was 0.64. For the same molecule, the “CyclinA expression profile (in words)” value ([3]; 12.5 μM) was “very little or no reduction”, the “Relative gene expression of Cyclin A” value ([3]; 12.5 μM) was 1.00 and the “Band intensity Of PCR Amplicon Of genes, Cyclin A” value ([3]; 25 μM) was 10,798.368. For the same molecule, the “Normalized (Cyclin A to β-actin)” value ([3]; 25 μM) was 0.43, the “CyclinA expression profile (in words)” value ([3]; 25 μM) was “clear decrease” and the “Relative gene expression of Cyclin A” value ([3]; 25 μM) was 0.67.
